According to patent US20260069588A1, “VEPDEGESTRANT FOR USE IN TREATING CANCER” (Arvinas Operation, Inc., priority 2022, published 2026):

Test: FIH Study Part A dose escalation: adverse events
Source text: TEAEs and TRAEs from the clinical study database were coded to system organ class and preferred term using MedDRA version 22.0 and SAEs from the centralized safety database were coded using MedDRA version 25.0. The severity of adverse events was graded according to the NCI CTCAE version 5.0.

O=C1CC[C@H](N2Cc3cc(N4CCN(CC5CCN(c6ccc([C@@H]7c8ccc(O)cc8CC[C@@H]7c7ccccc7)cc6)CC5)CC4)ccc3C2=O)C(=O)N1 [Compound A, (S)-3-(5-(4-((1-(4-((1R,2S)-6-hydroxy-2-phenyl-1,2,3,4-tetrahydronaphthalen-1-yl)phenyl)piperidin-4-yl)methyl)piperazin-1-yl)-1-oxoisoindolin-2-yl)piperidine-2,6-dione]
2 n: TEAE Nausea (60 mg (N=3)) | TRAE Nausea (60 mg (N=3)) | TEAE Arthralgia (100 mg (N=9)) | TEAE Constipation (100 mg (N=9)) | TEAE Decreased appetite (100 mg (N=9)) | TEAE Fatigue (100 mg (N=9)) | TEAE Nausea (100 mg (N=9)) | TRAE Decreased appetite (100 mg (N=9)) | TEAE Arthralgia (120 mg (N=7)) | TEAE Constipation (120 mg (N=7)) | TEAE Headache (120 mg (N=7)) | TEAE Nausea (120 mg (N=7)) | TEAE Pain in extremity (120 mg (N=7)) | TEAE Vomiting (120 mg (N=7)) | TRAE Arthralgia (120 mg (N=7)) | TRAE Nausea (120 mg (N=7)) | TRAE Vomiting (120 mg (N=7)) | TEAE Alanine aminotransferase increased (180 mg (N=7)) | TEAE Arthralgia (180 mg (N=7)) | TEAE Aspartate aminotransferase increased (180 mg (N=7)) | TEAE Fatigue (180 mg (N=7)) | TEAE Nausea (180 mg (N=7)) | TRAE Nausea (180 mg (N=7)) | TEAE Alanine aminotransferase increased (200 mg (N=8)) | TEAE Constipation (200 mg (N=8)) | TRAE Constipation (200 mg (N=8))
0 n: TEAE Alanine aminotransferase increased (30 mg (N=3)) | TEAE Arthralgia (30 mg (N=3)) | TEAE Aspartate aminotransferase increased (30 mg (N=3)) | TEAE Back pain (30 mg (N=3)) | TEAE Constipation (30 mg (N=3)) | TEAE Decreased appetite (30 mg (N=3)) | TEAE Diarrhea (30 mg (N=3)) | TEAE Dizziness (30 mg (N=3)) | TEAE Fatigue (30 mg (N=3)) | TEAE Headache (30 mg (N=3)) | TEAE Hyperglycemia (30 mg (N=3)) | TEAE Nausea (30 mg (N=3)) | TEAE Pain in extremity (30 mg (N=3)) | TEAE Vomiting (30 mg (N=3)) | TRAE Arthralgia (30 mg (N=3)) | TRAE Constipation (30 mg (N=3)) | TRAE Decreased appetite (30 mg (N=3)) | TRAE Fatigue (30 mg (N=3)) | TRAE Hot flush (30 mg (N=3)) | TRAE Nausea (30 mg (N=3)) | TRAE Vomiting (30 mg (N=3)) | TEAE Alanine aminotransferase increased (60 mg (N=3)) | TEAE Aspartate aminotransferase increased (60 mg (N=3)) | TEAE Back pain (60 mg (N=3)) | TEAE Decreased appetite (60 mg (N=3)) | TEAE Diarrhea (60 mg (N=3)) | TEAE Hot flush (60 mg (N=3)) | TEAE Hyperglycemia (60 mg (N=3)) | TEAE Insomnia (60 mg (N=3)) | TEAE Vomiting (60 mg (N=3)) | TRAE Constipation (60 mg (N=3)) | TRAE Decreased appetite (60 mg (N=3)) | TRAE Hot flush (60 mg (N=3)) | TRAE Vomiting (60 mg (N=3)) | TEAE Alanine aminotransferase increased (100 mg (N=9)) | TEAE Aspartate aminotransferase increased (100 mg (N=9)) | TEAE Dizziness (100 mg (N=9)) | TEAE Hyperglycemia (100 mg (N=9)) | TEAE Insomnia (100 mg (N=9)) | TEAE Pain in extremity (100 mg (N=9)) | TRAE Vomiting (100 mg (N=9)) | TEAE Diarrhea (120 mg (N=7)) | TEAE Fatigue (120 mg (N=7)) | TRAE Fatigue (120 mg (N=7)) | TRAE Hot flush (120 mg (N=7)) | TEAE Back pain (180 mg (N=7)) | TEAE Decreased appetite (180 mg (N=7)) | TEAE Diarrhea (180 mg (N=7)) | TEAE Dizziness (180 mg (N=7)) | TEAE Headache (180 mg (N=7)) | TEAE Hot flush (180 mg (N=7)) | TEAE Hyperglycemia (180 mg (N=7)) | TEAE Insomnia (180 mg (N=7)) | TEAE Vomiting (180 mg (N=7)) | TRAE Constipation (180 mg (N=7)) | TRAE Decreased appetite (180 mg (N=7)) | TRAE Hot flush (180 mg (N=7)) | TRAE Vomiting (180 mg (N=7)) | TEAE Decreased appetite (200 mg (N=8)) | TEAE Dizziness (200 mg (N=8)) | TEAE Pain in extremity (200 mg (N=8)) | TRAE Decreased appetite (200 mg (N=8)) | TRAE Fatigue (200 mg (N=8))
4 n: TEAE Diarrhea (100 mg (N=9))
1 n: TEAE Hot flush (30 mg (N=3)) | TEAE Insomnia (30 mg (N=3)) | TEAE Arthralgia (60 mg (N=3)) | TEAE Constipation (60 mg (N=3)) | TEAE Dizziness (60 mg (N=3)) | TEAE Fatigue (60 mg (N=3)) | TEAE Headache (60 mg (N=3)) | TEAE Pain in extremity (60 mg (N=3)) | TRAE Arthralgia (60 mg (N=3)) | TRAE Fatigue (60 mg (N=3)) | TEAE Back pain (100 mg (N=9)) | TEAE Headache (100 mg (N=9)) | TEAE Hot flush (100 mg (N=9)) | TEAE Vomiting (100 mg (N=9)) | TRAE Arthralgia (100 mg (N=9)) | TRAE Constipation (100 mg (N=9)) | TRAE Fatigue (100 mg (N=9)) | TRAE Hot flush (100 mg (N=9)) | TRAE Nausea (100 mg (N=9)) | TEAE Alanine aminotransferase increased (120 mg (N=7)) | TEAE Back pain (120 mg (N=7)) | TEAE Dizziness (120 mg (N=7)) | TEAE Hot flush (120 mg (N=7)) | TEAE Hyperglycemia (120 mg (N=7)) | TEAE Insomnia (120 mg (N=7)) | TRAE Constipation (120 mg (N=7)) | TEAE Constipation (180 mg (N=7)) | TEAE Pain in extremity (180 mg (N=7)) | TRAE Arthralgia (180 mg (N=7)) | TRAE Fatigue (180 mg (N=7)) | TEAE Arthralgia (200 mg (N=8)) | TEAE Back pain (200 mg (N=8)) | TEAE Diarrhea (200 mg (N=8)) | TEAE Fatigue (200 mg (N=8)) | TEAE Headache (200 mg (N=8)) | TEAE Hot flush (200 mg (N=8)) | TEAE Hyperglycemia (200 mg (N=8)) | TEAE Insomnia (200 mg (N=8)) | TEAE Vomiting (200 mg (N=8)) | TRAE Arthralgia (200 mg (N=8)) | TRAE Hot flush (200 mg (N=8))
3 n: TEAE Aspartate aminotransferase increased (120 mg (N=7)) | TEAE Decreased appetite (120 mg (N=7)) | TRAE Decreased appetite (120 mg (N=7)) | TEAE Aspartate aminotransferase increased (200 mg (N=8)) | TEAE Nausea (200 mg (N=8))
